From the NIST ThermoML archive (doi:10.1016/j.jct.2015.07.046)
Numbers after ± are expanded uncertainties.

Test: activity coefficient (dimensionless); of the first substance listed, at infinite dilution; xn = mol fraction of the nth substance listed
Settings: 101.3 kPa, Liquid, Chromatography, x1 = 0

Compound | activity coefficient (313.15 K) | activity coefficient (323.15 K) | activity coefficient (333.15 K) | activity coefficient (343.15 K) | activity coefficient (353.15 K) | activity coefficient (363.15 K)
CC(C)CC(C)(C)C [2,2,4-trimethylpentane] + CCn1cc[n+](C)c1.COP(=O)([O-])OC | 183 ± 19 | 170 ± 18 | 158 ± 17 | 143 ± 15 | 132 ± 14 | 119 ± 13
C1=CCCCC1 [cyclohexene] + CCn1cc[n+](C)c1.COP(=O)([O-])OC | 25.4 ± 2.7 | 22.4 ± 2.4 | 20 ± 2.1 | 18.7 ± 2 | 16.9 ± 1.8 | 15.5 ± 1.6
CCCCCCCCCC [decane] + CCn1cc[n+](C)c1.COP(=O)([O-])OC | 430 ± 45 | 388 ± 41 | 354 ± 37 | 316 ± 33 | 294 ± 31 | 245 ± 26
Cc1cccc(C)c1 [1,3-dimethylbenzene] + CCn1cc[n+](C)c1.COP(=O)([O-])OC | 12.4 ± 1.3 | 11.8 ± 1.2 | 11.2 ± 1.2 | 10.8 ± 1.1 | 10.5 ± 1.1 | 9.99 ± 1.1
CCCCCCCC [octane] + COP(=O)([O-])OC.Cn1cc[n+](C)c1 | 340 ± 36 | 325 ± 34 | 302 ± 32 | 285 ± 30 | 270 ± 28 | 248 ± 26
CCCCCCC [heptane] + CCn1cc[n+](C)c1.COP(=O)([O-])OC | 162 ± 17 | 151 ± 16 | 138 ± 15 | 124 ± 13 | 111 ± 12 | 97.7 ± 10
CCCCCCCC [octane] + CCn1cc[n+](C)c1.COP(=O)([O-])OC | 202 ± 21 | 187 ± 20 | 173 ± 18 | 158 ± 17 | 144 ± 15 | 132 ± 14
Cc1ccccc1 [toluene] + CCn1cc[n+](C)c1.COP(=O)([O-])OC | 6.45 ± 0.68 | 6.14 ± 0.65 | 5.94 ± 0.62 | 5.73 ± 0.6 | 5.56 ± 0.58 | 5.4 ± 0.57
CCCCC [pentane] + CCn1cc[n+](C)c1.COP(=O)([O-])OC | 125 ± 13 | 106 ± 11 | 88.5 ± 9.3 | 69.8 ± 7.4 | 60.5 ± 6.4 | 52.9 ± 5.6
CC1CCCCC1 [methylcyclohexane] + CCn1cc[n+](C)c1.COP(=O)([O-])OC | 77.7 ± 8.2 | 68.3 ± 7.2 | 61.5 ± 6.5 | 55.9 ± 5.9 | 50.5 ± 5.3 | 45.5 ± 4.8
c1ccccc1 [benzene] + COP(=O)([O-])OC.Cn1cc[n+](C)c1 | 3.64 ± 0.38 | 3.62 ± 0.38 | 3.61 ± 0.38 | 3.59 ± 0.38 | 3.57 ± 0.38 | 3.56 ± 0.37
CCCCCCCCCC [decane] + COP(=O)([O-])OC.Cn1cc[n+](C)c1 | 503 ± 53 | 480 ± 51 | 466 ± 49 | 448 ± 47 | 431 ± 46 | 414 ± 44
c1ccccc1 [benzene] + CCn1cc[n+](C)c1.COP(=O)([O-])OC | 3.51 ± 0.37 | 3.33 ± 0.35 | 3.2 ± 0.34 | 3.12 ± 0.33 | 3.02 ± 0.32 | 2.87 ± 0.3
Cc1ccccc1C [1,2-dimethylbenzene] + CCn1cc[n+](C)c1.COP(=O)([O-])OC | 10.2 ± 1.1 | 9.8 ± 1 | 9.59 ± 1 | 9.3 ± 0.98 | 9.14 ± 0.96 | 9 ± 0.95
Cc1ccccc1C [1,2-dimethylbenzene] + COP(=O)([O-])OC.Cn1cc[n+](C)c1 | 12.7 ± 1.3 | 12.5 ± 1.3 | 12.4 ± 1.3 | 12.2 ± 1.3 | 12.1 ± 1.3 | 12 ± 1.3
CC1CCCCC1 [methylcyclohexane] + COP(=O)([O-])OC.Cn1cc[n+](C)c1 | 83.4 ± 8.8 | 80.8 ± 8.5 | 78.3 ± 8.2 | 75.4 ± 7.9 | 73 ± 7.7 | 69.9 ± 7.4

Compound | activity coefficient (313.15 K) | activity coefficient (323.15 K) | activity coefficient (333.15 K) | activity coefficient (343.15 K) | activity coefficient (353.15 K) | activity coefficient (363.15 K)
CC(C)CC(C)(C)C [2,2,4-trimethylpentane] + COP(=O)([O-])OC.Cn1cc[n+](C)c1 | 318 ± 34 | 301 ± 32 | 284 ± 30 | 270 ± 28 | 244 ± 26 | 229 ± 24
CCCCCCC [heptane] + COP(=O)([O-])OC.Cn1cc[n+](C)c1 | 297 ± 31 | 279 ± 29 | 258 ± 27 | 243 ± 26 | 231 ± 24 | 216 ± 23
Cc1ccccc1 [toluene] + COP(=O)([O-])OC.Cn1cc[n+](C)c1 | 7.57 ± 0.8 | 7.54 ± 0.79 | 7.51 ± 0.79 | 7.48 ± 0.79 | 7.47 ± 0.79 | 7.45 ± 0.78
CCCCCCCCC [nonane] + CCn1cc[n+](C)c1.COP(=O)([O-])OC | 272 ± 29 | 243 ± 26 | 225 ± 24 | 207 ± 22 | 197 ± 21 | 182 ± 19
Cc1ccc(C)cc1 [1,4-dimethylbenzene] + CCn1cc[n+](C)c1.COP(=O)([O-])OC | 12.1 ± 1.3 | 11.5 ± 1.2 | 10.9 ± 1.1 | 10.5 ± 1.1 | 9.99 ± 1.1 | 9.53 ± 1
Cc1cccc(C)c1 [1,3-dimethylbenzene] + COP(=O)([O-])OC.Cn1cc[n+](C)c1 | 14.6 ± 1.5 | 14.4 ± 1.5 | 14.2 ± 1.5 | 14.2 ± 1.5 | 14.1 ± 1.5 | 13.9 ± 1.5
C1CCCCC1 [cyclohexane] + CCn1cc[n+](C)c1.COP(=O)([O-])OC | 53.9 ± 5.7 | 48.9 ± 5.2 | 44 ± 4.6 | 40.6 ± 4.3 | 37.7 ± 4 | 32.9 ± 3.5
CCCCCC [hexane] + CCn1cc[n+](C)c1.COP(=O)([O-])OC | 139 ± 15 | 122 ± 13 | 107 ± 11 | 87.6 ± 9.2 | 72.2 ± 7.6 | 61.5 ± 6.5
CCCCCCCCC [nonane] + COP(=O)([O-])OC.Cn1cc[n+](C)c1 | 400 ± 42 | 384 ± 40 | 368 ± 39 | 351 ± 37 | 345 ± 36 | 327 ± 34
Cc1ccc(C)cc1 [1,4-dimethylbenzene] + COP(=O)([O-])OC.Cn1cc[n+](C)c1 | 13.8 ± 1.4 | 13.6 ± 1.4 | 13.5 ± 1.4 | 13.4 ± 1.4 | 13.2 ± 1.4 | 13.1 ± 1.4
C1=CCCCC1 [cyclohexene] + COP(=O)([O-])OC.Cn1cc[n+](C)c1 | 32.7 ± 3.5 | 31.6 ± 3.3 | 30.7 ± 3.2 | 30.1 ± 3.2 | 29.1 ± 3.1 | 28.3 ± 3
C=Cc1ccccc1 [styrene] + COP(=O)([O-])OC.Cn1cc[n+](C)c1 | – | 6.62 ± 0.7 | 6.61 ± 0.69 | 6.6 ± 0.69 | 6.58 ± 0.69 | 6.57 ± 0.69
C1CCCCC1 [cyclohexane] + COP(=O)([O-])OC.Cn1cc[n+](C)c1 | 58.4 ± 6.2 | 56 ± 5.9 | 52.6 ± 5.5 | 50.9 ± 5.4 | 48 ± 5.1 | 45.7 ± 4.8
CCCCC [pentane] + COP(=O)([O-])OC.Cn1cc[n+](C)c1 | 245 ± 26 | 230 ± 24 | 217 ± 23 | 201 ± 21 | 184 ± 19 | 170 ± 18
CCCCCC [hexane] + COP(=O)([O-])OC.Cn1cc[n+](C)c1 | 260 ± 27 | 246 ± 26 | 230 ± 24 | 218 ± 23 | 203 ± 21 | 187 ± 20
C=Cc1ccccc1 [styrene] + CCn1cc[n+](C)c1.COP(=O)([O-])OC | 5.45 ± 0.57 | 5.29 ± 0.56 | 5.16 ± 0.54 | 5.01 ± 0.53 | 4.86 ± 0.51 | 4.71 ± 0.49
